The values below come from patent US20250304537A1 (Repare Therapeutics Inc., priority 2022, published 2025).

Sequence of recombinant human Myt1 (full length PKMYT1) (Q99640 whole entry): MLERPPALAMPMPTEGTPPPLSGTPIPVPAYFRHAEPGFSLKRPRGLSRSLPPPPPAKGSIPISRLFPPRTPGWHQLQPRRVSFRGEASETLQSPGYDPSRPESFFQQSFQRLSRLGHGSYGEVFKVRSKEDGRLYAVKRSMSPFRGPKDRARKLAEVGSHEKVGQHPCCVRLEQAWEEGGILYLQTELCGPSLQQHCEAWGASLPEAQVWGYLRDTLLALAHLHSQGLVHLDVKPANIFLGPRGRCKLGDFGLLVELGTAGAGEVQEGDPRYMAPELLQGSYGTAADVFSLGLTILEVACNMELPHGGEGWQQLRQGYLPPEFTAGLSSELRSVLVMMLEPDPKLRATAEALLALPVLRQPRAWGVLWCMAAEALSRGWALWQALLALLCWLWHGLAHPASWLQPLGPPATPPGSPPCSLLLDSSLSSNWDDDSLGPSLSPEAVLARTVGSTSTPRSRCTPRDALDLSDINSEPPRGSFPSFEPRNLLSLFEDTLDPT

This assay has as its target recombinant human Myt1 (full length PKMYT1) (Homo sapiens (Human), UniProt Q99640). Kind of assay: Recombinant human Myt1 kinase assay (ADP-Glo). As to conditions: 10 μM ATP. It is filed as biochemical. As to the method: Detection of Myt1 kinase activity utilized a recombinant human Myt1 kinase assay measuring the hydrolysis of ATP using a commercially available ADP-Glo Assay (ADP-Glo™ Kinase Assay from Promega, 10 000 assays, #V9102). Briefly, 5 μL recombinant human Myt1 (full length PKMYT1 recombinant human protein expressed in insect cells from Thermo Fisher #A33387; ˜80% purity) was prepared in reaction buffer (70 mM HEPES, 3 mM MgCl2, 3 mM MnCl2, 50 μg/ml PEG 20000, 3 μM Na-orthovanadate, 1.2 mM DTT) and added to 384 well white polystyrene, flat bottom well, non-treated, microplate (Corning #3572). After this, 5 μL of compounds (diluted in reaction buffer to 0.5% DMSO) was added to the microplate and the plate was spun briefly and incubated at 22° C. for 15 minutes. Ultra-Pure Adenosine Triphosphate (ATP) solution (ADP-Glo kit from Promega) was diluted in reaction buffer and 5 μL was added to the microplate, spun down briefly and incubated for 60 minutes at 30° C. The final Myt1 enzyme concentration was 18 nM and the final ATP concentration was 10 μM. After the 60-minute incubation, 15 μL of ADP-Glo reagent was added and the plate was spun briefly and sealed and incubated in the dark for 40 minutes at 22° C. Following this, 30 μL of kinase detection reagent was added per well and the plate was spun briefly, sealed and incubated for 45-60 minutes at 22° C. in the dark. Luminescence was read using the Envision (250 ms integration). The IC50 and the % max inhibition were calculated for each inhibitor compound tested.
Background: ADP-Glo first removes unused ATP, then detects ADP through luciferase.
The term IC50 denotes the point on the concentration scale where inhibition reaches its midpoint. Take `Cc1ccc(O)c(C)c1-c1cc(-c2ccnnc2)cc(C(N)=O)c1N` [Compound 149]: the IC50 is 735 nM.
The value for `Cc1n[nH]c2cccc(-c3nc(-c4ccccc4)nc(C(N)=O)c3N)c12` [Compound 116] was above 5000 nM; that for `Cc1ccc2[nH]ncc2c1-c1cc(-c2ccnc(OCCN(C)C(=O)OC(C)(C)C)n2)nc(C(N)=O)c1N` [Compound 209] was 73 nM.
Under `Cc1ccc2[nH]ncc2c1-c1cc(-c2ccnc(O[C@@H](C)c3ncccn3)n2)nc(C(N)=O)c1N` (atropisomer, axis not shown) [Compound 357] stands 5 nM; under `Cc1ccc2[nH]ncc2c1-c1nc(-c2ccc(Oc3ccccc3)cc2)nc(C(N)=O)c1N` [Compound 113], 1110 nM.
`Cc1ccc2[nH]ncc2c1-c1cc(-c2ccnc(OCCn3cccn3)n2)nc(C(N)=O)c1N` [Compound 329]: the half-inhibitory concentration (IC50) amounted to 14 nM.
Under `Cc1ccc2[nH]ncc2c1-c1cc(-c2ccnc(N[C@H]3c4ccccc4C[C@@H]3O)n2)nc(C(N)=O)c1N` (atropisomer, axis not shown) [Compound 372] stands above 2000 nM; under `COc1cnc(COc2cccc(-c3cc(-c4c(C)ccc5[nH]ncc45)c(N)c(C(N)=O)n3)n2)nc1` [Compound 255], 72 nM; under `Cc1ccc2[nH]ncc2c1-c1cc(-c2cccc(OCc3nccc(N4CCOCC4)n3)n2)nc(C(N)=O)c1N` [Compound 259], 584 nM.
For `CSC(C)COc1cccc(-c2cc(-c3c(C)ccc4[nH]ncc34)c(N)c(C(N)=O)n2)n1` (stereo not drawn) [Compound 375], the IC50 amounted to 14 nM.
The value for `Cc1ccc2[nH]ncc2c1-c1nc(-c2ccccc2N)nc(C(N)=O)c1N` [Compound 319] was 48 nM; that for `Cc1ccc(O)cc1-c1nc(-c2ccc(F)c(Cl)c2)nc(C(N)=O)c1N` [Compound 28] was 45 nM; that for `Cc1c(-c2ccccn2)nc(C(N)=O)c(N)c1-c1cccc2[nH]ncc12` [Compound 246, 5-amino-4-(1H-indazol-4-yl)-3-methyl-[2,2′-bipyridine]-6-carboxamide] was 720 nM.
Under `CO[C@@H](COc1cccc(-c2cc(-c3c(C)ccc4[nH]ncc34)c(N)c(C(N)=O)n2)c1)c1ccccc1` [Compound 351] stands 149 nM; under `Cc1ccc(O)cc1-c1c(N)c(C(N)=O)nc2ccccc12` [Compound 10, 3-amino-4-(5-hydroxy-2-methylphenyl)quinoline-2-carboxamide], 202 nM; under `Cc1ccc2[nH]ncc2c1-c1nc(-c2ccnc(C(F)(F)F)c2)nc(C(N)=O)c1N` [Compound 153], 27 nM.
Under `Cc1ccc2[nH]ncc2c1-c1nc(-c2cccnc2)nc(C(N)=O)c1N` [Compound 99] stands 59 nM; under `Cc1ccc2[nH]ncc2c1-c1nc(-c2cccc(CC#N)c2)nc(C(N)=O)c1N` [Compound 281], 8 nM; under `Cc1ccc2[nH]ncc2c1-c1cc(-c2cccc(OCCN3CCN(C)CC3)n2)nc(C(N)=O)c1N` [Compound 307], 25 nM.
`CO[C@@H](COc1cccc(-c2nc(C(N)=O)c(N)c(-c3c(C)ccc4[nH]ncc34)n2)c1)c1ccccc1` [Compound 354]: the IC50 stood at 293 nM.
Under `CC(=O)Nc1cccc(-c2nc(C(N)=O)c(N)c(-c3c(C)ccc4[nH]ncc34)n2)c1` [Compound 298] stands 15 nM; under `Cc1cccc(-c2nc(C(N)=O)c(N)c(-c3cc(O)ccc3C)n2)c1` [Compound 30], 74 nM.
Under `Cc1ccc2[nH]ncc2c1-c1nc(-c2cccc(CN(C)C)c2)nc(C(N)=O)c1N` [Compound 291] stands 25 nM; under `Cc1ccc2[nH]ncc2c1-c1cc(-c2cccnc2)nc(C(N)=O)c1N` [Compound 97], 54 nM; under `Cc1nc(COc2nccc(-c3cc(-c4c(C)ccc5[nH]ncc45)c(N)c(C(N)=O)n3)n2)co1` [Compound 316], 20 nM.
The value for `Cc1ccc2[nH]ncc2c1-c1cc(-c2cccc(O[C@@H](C)c3ncccn3)n2)nc(C(N)=O)c1N` [Compound 253] was 55 nM.
With `Cc1ccc2[nH]ncc2c1-c1cc(-c2ccnc(OCCc3cnccn3)n2)nc(C(N)=O)c1N` [Compound 310], the half-maximal inhibitory concentration (IC50) turned out to be 14 nM.
`Cc1ccc2[nH]ncc2c1-c1nc(-c2ccccn2)nc(C(N)=O)c1N` [Compound 117]: the half-inhibitory concentration (IC50) came out at 90 nM.
For `COc1ccc(COc2cccc(-c3cc(-c4c(C)ccc5[nH]ncc45)c(N)c(C(N)=O)n3)n2)cc1` [Compound 339], the 50% inhibitory concentration (IC50) came to 1160 nM.
The value for `Cc1ccc2[nH]ncc2c1-c1cc(-c2cccc(OCc3ccn(C)n3)n2)nc(C(N)=O)c1N` [Compound 248] was 71 nM; that for `CO[C@@H](COc1cccc(-c2cc(-c3c(C)ccc4[nH]ncc34)c(N)c(C(N)=O)n2)n1)C1CC1` (atropisomer, axis not shown) [Compound 363] was 4 nM; that for `Cc1ccc2[nH]ncc2c1-c1cc(-c2cccc(OCCN3CCCC3)n2)nc(C(N)=O)c1N` (atropisomer, axis not shown) [Compound 271] was 1090 nM.
Under `Cc1ccc(O)cc1-c1nc(-c2cc(F)cc(F)c2)nc(C(N)=O)c1N` [Compound 22] stands 18 nM; under `COc1cccc(-c2cccc(-c3cc(-c4c(C)ccc5[nH]ncc45)c(N)c(C(N)=O)n3)n2)c1` [Compound 340, 5-amino-6′-(3-methoxyphenyl)-4-(5-methyl-1H-indazol-4-yl)-[2,2′-bipyridine]-6-carboxamide], above 2000 nM.
The value for `CCS(=O)(=O)c1ccccc1-c1nc(C(N)=O)c(N)c(-c2c(C)ccc3[nH]ncc23)n1` [Compound 800] was 1010 nM; that for `Cc1ccc2[nH]ncc2c1-c1cc(-c2ccccn2)nc(C(N)=O)c1N` [Compound 96] was 387 nM.
Regarding `Cc1ccc2[nH]ncc2c1-c1cc(-c2cccc(OC(C)c3ccccn3)n2)nc(C(N)=O)c1N` (stereo not drawn) [Compound 252], the IC50 amounted to 26 nM.
In the case of `Cc1ccc2[nH]ncc2c1-c1cc(-c2cn(C)cn2)nc(C(N)=O)c1N` [Compound 172], the concentration for half-maximal inhibition (IC50) amounted to 53 nM.
The value for `NC(=O)c1nc(-c2ccnnc2)cc(-c2c(Cl)ccc3[nH]ncc23)c1N` [Compound 106] was 28 nM; that for `Cc1ccc2[nH]ncc2c1-c1cc(-c2ccnc(OC[C@H]3CCC(=O)N3)n2)nc(C(N)=O)c1N` [Compound 337] was 19 nM.
The value for `CCC(Nc1cccc(-c2cc(-c3c(C)ccc4[nH]ncc34)c(N)c(C(N)=O)n2)n1)c1ccccc1` (stereo not drawn) [Compound 331, 5-amino-4-(5-methyl-1H-indazol-4-yl)-6′-((1-phenylpropyl)amino)-[2,2′-bipyridine]-6-carboxamide] was 54 nM.
Under `Cc1ccccc1-c1nc(C(N)=O)c(N)c(-c2cc(O)ccc2C)n1` [Compound 31] stands 341 nM; under `Cc1ccc2[nH]ncc2c1-c1nc(-c2ccc(C(=O)O)s2)nc(C(N)=O)c1N` [Compound 162], 198 nM.
`Cc1ccc2[nH]ncc2c1-c1nc(-c2cccc(Cl)c2)nc(C(N)=O)c1N` [Compound 111]: the IC50 was found to be 44 nM.
Take `Cc1ccc2[nH]ncc2c1-c1cc(-c2ccnc(NCCCO)n2)nc(C(N)=O)c1N` [Compound 343]: the IC50 was found to be 20 nM.
The value for `Cc1ccc(O)cc1-c1nc(C2CCC(F)(F)CC2)nc(C(N)=O)c1N` [Compound 41, 5-amino-2-(4,4-difluorocyclohexyl)-6-(5-hydroxy-2-methylphenyl)pyrimidine-4-carboxamide] was 827 nM; that for `NC(=O)c1nc(-c2cccnc2)cc(-c2c(C(F)(F)F)ccc3[nH]ncc23)c1N` [Compound 325] was above 2000 nM; that for `Cc1ccc(O)cc1-c1nc(-c2cnn(C)c2)nc(C(N)=O)c1N` [Compound 34] was 81 nM.
In the case of `Cc1ccc(O)cc1-c1nc(-c2ccc(N)nc2)nc(C(N)=O)c1N` [Compound 33], the half-maximal inhibitory concentration (IC50) stood at 52 nM.
Under `Cc1ccc2[nH]ncc2c1-c1nc(-c2cccc3cc[nH]c23)nc(C(N)=O)c1N` [Compound 366] stands 28 nM.
With `Cc1ccc(O)cc1-c1nc(-c2cc(F)cc(C(F)(F)F)c2)nc(C(N)=O)c1N` [Compound 32], the IC50 worked out at 175 nM.
The value for `Cc1ccc2[nH]ncc2c1-c1nc(-c2cccc3nnsc23)nc(C(N)=O)c1N` [Compound 390] was 5 nM; that for `Cc1ccc2[nH]ncc2c1-c1cc(C(N)=O)nc(-c2ccccc2)n1` [Compound 76, 6-(5-methyl-1H-indazol-4-yl)-2-phenylpyrimidine-4-carboxamide] was above 2000 nM.
Under `Cc1ccc2[nH]ncc2c1-c1nc(-c2ccc(C(F)(F)F)cc2)nc(C(N)=O)c1N` [Compound 104] stands 317 nM; under `CCC(CC)COc1cccc(-c2cc(-c3c(C)ccc4[nH]ncc34)c(N)c(C(N)=O)n2)n1` [Compound 350], 35 nM; under `Cc1ccc2[nH]ncc2c1-c1cc(-c2cccc(OCC(F)(F)F)c2)nc(C(N)=O)c1N` [Compound 175], 364 nM.
Under `Cc1ccc2[nH]ncc2c1-c1cc(-c2cccc(OC[C@H]3CCCN3)n2)nc(C(N)=O)c1N` [Compound 374] stands 14 nM.
